Results: publication PMC8043124 (ACS Infectious Diseases, 2021)

Key:
[1] = system: P. aeruginosa (strain PA14); experiment: Checkerboard assay of potentiator-antibiotic pairs; format: cell-based, Pseudomonas aeruginosa; details: for Antibiotic MIC with WD40 relative to clinical breakpoint: PA14, with WD40, breakpoints for Gram-positive species (EUCAST)
[2] = system: P. aeruginosa clinical isolates (BWH006, BWH012, BWH013, BWH021, BWH027); experiment: Checkerboard assay of potentiator-antibiotic pairs in clinical isolates; format: cell-based, Pseudomonas aeruginosa; details: for Antibiotic MIC with WD40 relative to clinical breakpoint: 10 μM WD40, MIC95, breakpoints for Gram-positive species (EUCAST); for MIC of antibiotic alone: range over isolates, Figure 6 names MIC95

## CC(=O)O[C@H]1C[C@@]2(C)[C@@H](C[C@@H](O)[C@H]3[C@@]4(C)CC[C@@H](O)[C@@H](C)[C@@H]4CC[C@@]32C)/C1=C(\CCC=C(C)C)C(=O)O [fusidic acid]
[1]
  Antibiotic MIC with WD40 relative to clinical breakpoint: clinical breakpoints were met
[2]
  Antibiotic MIC with WD40 relative to clinical breakpoint: did not meet their clinical breakpoints
  MIC of antibiotic alone: 512 to 1024 µg/mL

## CO[C@H]1/C=C/O[C@@]2(C)Oc3c(C)c(O)c4c(O)c(c(/C=N/N5CCN(C)CC5)c(O)c4c3C2=O)NC(=O)/C(C)=C\C=C\[C@H](C)[C@H](O)[C@@H](C)[C@@H](O)[C@@H](C)[C@H](OC(C)=O)[C@@H]1C [rifampin]
[1]; PA14
  MIC of antibiotic alone: 512 µg/mL
[1]
  Antibiotic MIC with WD40 relative to clinical breakpoint: to the clinical breakpoint
[2]
  Antibiotic MIC with WD40 relative to clinical breakpoint: below its clinical breakpoint
  MIC of antibiotic alone: 8 to 16 µg/mL
